Assay results published in patent US5670538A, “Use of prodelphinidins for obtaining medicaments intended for the treatment of arthrosis” (Laboratoires Dolisos, priority 1992, dated 1997).

What was measured:
ferricytochrome C = experiment: Control experiments: direct reduction of ferricytochrome C by the product itself; type: biochemical; settings: effect not quantifiable
Source text: This effect not being quantifiable, no conclusion can consequently be drawn on a possible inhibiting effect of these products on the production of the superoxide anion by the activated PMNs.

[1] = test system: human articular chondrocytes; experiment: Synthesis of DNA by incorporation of 3H-thymidine in the chondrocytes, index of cell proliferation; type: cell-based; settings: 1, 10 and 100 pg/ml (so in the source); relative to control values
Method: (§1) 1. Tridimensional culture of human chondrocytes
(§2) The technique used has been described in detail (Bassleer et al., 1986).
(§3) Briefly, human articular chondrocytes are cultivated in DMEM (Dulbecco's Modification of Eagle's Medium--ICN--Gand, Belgium) with either Ultroser G 1% (GIBCO, Gand, Belgium) or 10% of foetal calf serum (ICN--Gand--Belgium), and 50 μg of ascorbic acid/ml added to it. The cartilage originates from the apparently normal zone of heads of human femur suffering from arthrosis, immediately after an operation carried out to insert a total hip prosthesis; it can also originate from the head of a healthy femur, but which has undergone a traumatism and has had to be replaced. This cartilage is then digested by clostridial collagenase 1 mg/ml (Boehringer-Mannheim, Germany) in a buffer (NaCl 120 mM, CaCl2 1 mM, KCl 5 mM, KH2 PO4 1 mM, NaHCO3 25 mM, glucose 2 mM and Hepes 30 mM, pH 7.4) for 24 hours. After 6 successive washings and centrifugations, the chondrocytes, isolated from their matrix, are cultured in flasks (10^6 cells/2 ml of culture medium) placed on a gyrator (10 rpm). The cultures are kept at 37° C. in an atmosphere of air 95%-CO2 5% (Bassleer et al., 1986). Cultivated under these conditions, after 4 to 5 days the chondrocytes form a tridimensional cluster in each flask. These clusters, which at first have a flocculent appearance, then tend to condense during the culture. After two weeks, their diameter is, in general, from 1 to 2 mm.
(§4) The fresh weight of the clusters increases with the duration of the culture, above all during the few first days.
5. Analysis of the synthesis of DNA by measurement of the incorporation of ^3 H-thymidine
After different culture durations, the chondrocytes are cultivated in nutritive medium with the addition of 2 uCi/ml (5 Ci/mmole) of methyl ^3 H-thymidine (^3 H-TDN) (Amersham, Brussels, Belgium) for 24 hours. […]
The radioactivity incorporated in the cluster is then measured using a beta scintillation counter.

[2] = test system: human articular chondrocytes; experiment: Radioimmunoassay of prostaglandins E2 (PGE2) produced in tridimensional culture of human chondrocytes; type: cell-based; settings: for Amounts of PGE2 in the culture media taken on the 4th and 8th day: 1% Ultroser G, incubation of the 4th to 8th day; for PGE2 in the culture medium: foetal calf serum
Source text: The model used for testing the proanthocyanidols, namely the tridimensional culture of human chondrocytes allows chondrorepair to be quantified by the production of matrix substances: type II collagen, proteoglycans, and chondroresorption by the reduction in the levels of prostaglandin E2 and of OH° and O°2 type free radicals produced.
as §1, §2, §3, §4
4. Radioimmunoassay of prostaglandins E2 (PGE2)
The radioimmunoassay of PGE2s is carried out according to the method described by Serteyn et al., 1988. The PGE2 is obtained from Sigma (Aldrich-Chemie, Steinheim, Germany) and the ^3 H-PGE2 from NEN (Du Pont de Nemours, Brussels, Belgium). 0.1 ml of incubation buffer (10 mM Tris-HCl […], 0.5% sodium azide (W/V), 1% gelatine (W/V), pH 7.4), 0.1 ml of ^3 H-PGE2 (diluted so as to obtain 10,000 cpm/0.1 ml) and 0.1 ml of antiserum (1/4000) are added successively to 0.1 ml of the sample to be assayed or the reference antigen (0-500 pg). After incubation for 48 hours at 4° C., the free antigen is separated from the antigens bound to the antibodies by a precipitation with carbon-DEXTRAN T70 (0.5 ml per tube). The carbon-Dextran solution contains 5 g/l of neutral carbon, 500 mg of Dextran 70/l. After centrifugation (20 minutes, 3000 rpm, 4° C.), the radioactivity present in the supernatant is measured with a beta counter (Beckman) using liquid scintillation. The sensitivity of the assay is 20 pg/ml.
The accuracy of the method is 5%. The coefficients of the intra- and inter assay variation are 6% and 10% respectively. There is no cross reaction between this anti PGE2 antiserum and other prostanoids (Thromboxane B2, G-keto-PGF1-alpha, PGF2, PGA2), nor with the fatty acids such as arachidonic acid, oleic acid or also linoleic acid.
The results are expressed in quantities of PG, coll. II or PGE2 measured in the culture medium (CM) per μg of DNA. The cumulative measurements are obtained by adding the quantities assayed in the CMs to each renewal of the CM, for successive periods: 0 to 4, 4 to 8, 8 to 12 days of culture. The total production of PG is calculated by adding the cumulative quantities measured in the CMs to those measured in the corresponding clusters. The mean and the standard deviation (m±s.d) are calculated. Comparison of the mean values is carried out using the Mann-Whitney U statistical test. […]

[3] = Antilipoperoxidizing activity (gamma irradiation, linoleic acid substrate, pentane); type: biochemical; settings: for % inhibition of pentane release from linoleic acid (lipid peroxidation): Substrate: Linoleic acid, relative to the controls; for Production of free radicals from linoleic acid, effect in words: Table 23
Method: 9. Antilipoperoxidizing activity
Similar to the preceding anti-radical method but where the KMB is replaced by linoleic acid (C18: 2), the gamma radiation releases pentane which is analyzed. The height of the pentane peak is proportional to the quantity free of radicals formed in the medium.

Oc1cc(O)c2c(c1)O[C@H](c1cc(O)c(O)c(O)c1)[C@@H](O)[C@@H]2c1c(O)cc(O)c2c1O[C@H](c1cc(O)c(O)c(O)c1)[C@H](O)C2 [Substance Ia, GC-(4 alpha→8) EGC]
Direct reduction of ferricytochrome C (ferricytochrome C): powerful reducers of ferricytochrome C
Incorporation of 3H thymidine in the chondrocytes [1]: None of the substances Ia, lb and Ic modifies the incorporation
Amounts of PGE2 in the culture media taken on the 4th and 8th day ([2]; 1 μg/ml): 91.5 ± 9 pg/μg of DNA
Amounts of PGE2 in the culture media taken on the 4th and 8th day ([2]; 10 μg/ml): 44 ± 0.6 pg/μg of DNA
Amounts of PGE2 in the culture media taken on the 4th and 8th day ([2]; 100 μg/ml): 25 ± 13 pg/μg of DNA
PGE2 in the culture medium ([2]; 0-4 days, 10 μg/ml): 312 ± 15 pg/μg DNA/96 H
PGE2 in the culture medium ([2]; 0-4 days, 100 μg/ml): 143 ± 25 pg/μg DNA/96 H
PGE2 in the culture medium ([2]; 4-8 days, 10 μg/ml): 27 ± 2.5 pg/μg DNA/96 H
PGE2 in the culture medium ([2]; 4-8 days, 100 μg/ml): 25 ± 3.5 pg/μg DNA/96 H
% inhibition of pentane release from linoleic acid (lipid peroxidation) ([3]; 10^-3 M): 94%
% inhibition of pentane release from linoleic acid (lipid peroxidation) ([3]; 10^-4 M): 42%
% inhibition of pentane release from linoleic acid (lipid peroxidation) ([3]; 10^-5 M): 0%
Production of free radicals from linoleic acid, effect in words [3]: significantly inhibits

Oc1cc(O)c2c(c1)O[C@H](c1cc(O)c(O)c(O)c1)[C@@H](O)[C@@H]2c1c(O)cc(O)c2c1O[C@H](c1cc(O)c(O)c(O)c1)[C@@H](O)C2 [Substance Ib, GC-(4 alpha→8) GC]
Direct reduction of ferricytochrome C (ferricytochrome C): powerful reducers of ferricytochrome C
Incorporation of 3H thymidine in the chondrocytes [1]: None of the substances Ia, lb and Ic modifies the incorporation
Amounts of PGE2 in the culture media taken on the 4th and 8th day ([2]; 1 μg/ml): 129 ± 19 pg/μg of DNA
Amounts of PGE2 in the culture media taken on the 4th and 8th day ([2]; 10 μg/ml): 76 ± 14 pg/μg of DNA
Amounts of PGE2 in the culture media taken on the 4th and 8th day ([2]; 100 μg/ml): 48 ± 15 pg/μg of DNA
PGE2 in the culture medium ([2]; 0-4 days, 10 μg/ml): 130 ± 21 pg/μg DNA/96 H
PGE2 in the culture medium ([2]; 0-4 days, 100 μg/ml): 121 ± 16 pg/μg DNA/96 H
PGE2 in the culture medium ([2]; 4-8 days, 10 μg/ml): 30 ± 1.7 pg/μg DNA/96 H
PGE2 in the culture medium ([2]; 4-8 days, 100 μg/ml): 25 ± 1 pg/μg DNA/96 H
% inhibition of pentane release from linoleic acid (lipid peroxidation) ([3]; 10^-3 M): 93%
% inhibition of pentane release from linoleic acid (lipid peroxidation) ([3]; 10^-4 M): 45%
% inhibition of pentane release from linoleic acid (lipid peroxidation) ([3]; 10^-5 M): 0%
Production of free radicals from linoleic acid, effect in words [3]: significantly inhibits

Oc1cc(O)c2c(c1)O[C@H](c1cc(O)c(O)c(O)c1)[C@@H](O)[C@@H]2c1c(O)cc(O)c2c1O[C@H](c1cc(O)c(O)c(O)c1)[C@@H](O)[C@@H]2c1c(O)cc(O)c2c1O[C@H](c1cc(O)c(O)c(O)c1)[C@@H](O)C2 [Substance Ic, GC-(4 alpha→8) GC-(4 a→8)-GC]
Direct reduction of ferricytochrome C (ferricytochrome C): powerful reducers of ferricytochrome C
Incorporation of 3H thymidine in the chondrocytes [1]: None of the substances Ia, lb and Ic modifies the incorporation
Amounts of PGE2 in the culture media taken on the 4th and 8th day ([2]; 1 μg/ml): 101 ± 7 pg/μg of DNA
Amounts of PGE2 in the culture media taken on the 4th and 8th day ([2]; 10 μg/ml): 81 ± 12 pg/μg of DNA
Amounts of PGE2 in the culture media taken on the 4th and 8th day ([2]; 100 μg/ml): 39 ± 10 pg/μg of DNA
PGE2 in the culture medium ([2]; 0-4 days, 10 μg/ml): 160 ± 17 pg/μg DNA/96 H
PGE2 in the culture medium ([2]; 0-4 days, 100 μg/ml): 153 ± 15 pg/μg DNA/96 H
PGE2 in the culture medium ([2]; 4-8 days, 10 μg/ml): 35.5 ± 2.1 pg/μg DNA/96 H
PGE2 in the culture medium ([2]; 4-8 days, 100 μg/ml): 29 ± 3.5 pg/μg DNA/96 H
% inhibition of pentane release from linoleic acid (lipid peroxidation) ([3]; 10^-3 M): 91%
% inhibition of pentane release from linoleic acid (lipid peroxidation) ([3]; 10^-4 M): 40%
% inhibition of pentane release from linoleic acid (lipid peroxidation) ([3]; 10^-5 M): 0%
Production of free radicals from linoleic acid, effect in words [3]: significantly inhibits
